Laboratory results: US9457031B2, “Antibacterial protein kinase inhibitors” (priority 2012, dated 2016)

Columns and labels:
M. tb [1] = format: cell-based, Mycobacterium tuberculosis; settings: 5 μM concentration against M. tb during 72 h; FIGS. 4a and 4b
M. smegmatis = format: cell-based; settings: compared to the parent OSU-03012 and the other derivatives; FIG. 1
M. tb [2] = experiment: colony-forming unit (CFU) assay to determine bacterial survival; format: cell-based, Mycobacterium tuberculosis; settings: compared to the parent OSU-03012 and the other derivatives; FIG. 1

Row | SMILES | in vitro antimycobacterial activity upon screening of cpd2-24 derivatives (M. tb [1]) | killing of M. smegmatis (bacterial survival, CFU) (M. smegmatis) | killing of M. tb (bacterial survival, CFU) (M. tb [2])
1 | CNC(=O)CCc1cc(-c2ccc(-c3ccc(C(F)(F)F)cc3)cc2)n(-c2ccc(NC(=O)N3CCOCC3)cc2)n1 [cpd2-24-3, N-(4-(3-(3-(methylamino)-3-oxopropyl)-5-(4′-(trifluoromethyl)-[1,1′-biphenyl]-4-yl)-1H-pyrazol-1-yl)phenyl)morpholine-4-carboxamide] | particularly effective |  | 
2 | CNC(=O)CCc1cc(-c2ccc(-c3ccc(C(F)(F)F)cc3)cc2)n(-c2ccc(NC(=O)c3ccncc3)cc2)n1 [cpd2-24-5, N-(4-(3-(3-(methylamino)-3-oxopropyl)-5-(4′-(trifluoromethyl)-[1,1′-biphenyl]-4-yl)-1H-pyrazol-1-yl)phenyl)isonicotinamide] | particularly effective |  | 
3 | CNC(=O)CCc1cc(-c2ccc(-c3ccc(C(F)(F)F)cc3)cc2)n(-c2ccc(NC(=O)c3ccccn3)cc2)n1 [cpd2-24-6, N-(4-(3-(3-(methylamino)-3-oxopropyl)-5-(4′-(trifluoromethyl)-[1,1′-biphenyl]-4-yl)-1H-pyrazol-1-yl)phenyl)picolinamide] | particularly effective |  | 
4 | CNC(=O)CCc1cc(-c2ccc(-c3ccc(C(F)(F)F)cc3)cc2)n(-c2ccc(NC(=O)c3cccnc3)cc2)n1 [cpd2-24-7, N-(4-(3-(3-(methylamino)-3-oxopropyl)-5-(4′-(trifluoromethyl)-[1,1′-biphenyl]-4-yl)-1H-pyrazol-1-yl)phenyl)nicotinamide] | particularly effective |  | 
5 | NS(=O)(=O)Nc1ccc(-n2nc(C(F)(F)F)cc2-c2ccc3c(ccc4ccccc43)c2)cc1 [cpd-2] |  | significantly kill | significantly kill
